Assay results published in patent publication US4791215A, “Derivatives of glutamic acid and aspartic acid” (priority 1984, dated 1988).
Values joined by “and” are separate entries in the source; they are usually repeats but may differ in a detail not shown here. Equal values may be shown once.

How the values were obtained:
[1] = tested on: tolerance induced by morphine; assay: Antagonism to development of tolerance to repeated morphine HCl, Tail Flick Test (Experiment 5); conditions: compound 10 mg/kg + morphine 5 mg/kg i.p.
Description: Experiment No. 5: Antagonism of several products of the invention to the development of tolerance induced in rats by the repeated administration of morphine HCl.
Several of the compounds of the invention were examined to determine their possible capacity to antagonise the development of tolerance induced by morphine. Groups of 6 male rats having a weight of about 200-250 grams were used.
At intervals of 24 hours from the first treatment (time 0) each animal (except the control group treated physiologically) received 5 mg/kg of morphine hydrochloride i.p. together with 10 mg/kg i.p. of the compounds indicated (with the exception of the group treated solely with morphine).
The determination of the pain threshold was effected 15', 30', 45' and 60' from the treatment by the Tail Flick Test.

[2] = tested on: intestinal transit of carbon; assay: Anti-spastic activity, vegetable carbon intestinal transit test; assay type: in vivo, mice; conditions: Mus musculus, ip; read-out: antispastic activity ED50 (dose reducing intestinal transit of carbon by 50%)
Excerpt: The anti-spastic activity which the present compounds exert on the entire digestive system is also notable. Measured in mice with the vegetable carbon test (rate of transit through the stomach and the intestine), this activity is illustrated in the following table.
claimed administered intraperitoneally in mice. Values
expressed as the ED 50 in mg/kg, that is the dose which
reduces the intestinal transit of carbon by 50%

[3] = tested on: CCK-8 induced contraction of guinea pig gall bladder; assay: Anti-CCK activity on gall bladder strips in vitro; conditions: for ED50 (concentration antagonising 50% of contracting effect of CCK-8): CCK-8 10 ng/ml
Outline: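 CCK-8 at 10 ng/ml drove isometric contraction of guinea pig gall bladder strips held at 32 °C in oxygenated Krebs (O2/CO2 95:5). Antagonism was measured at graded compound concentrations and reported as ED50, in μg/ml, for 50% inhibition of the contraction.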

[4] = tested on: enkephalinamide (DALA) analgesia; assay: Potentiation of DALA (enkephalinamide) analgesia, i.c.v., Tail Flick Test (Experiment 4); assay type: in vivo, rats; set-up: scale not given here
Excerpt: Experiment No. 4: Potentiation of the analgesic activities of enkephalins induced by some of the compounds of the invention. […]

[5] = tested on: endogenous opiates analgesia; assay: Analgesic activity of endogenous opiates released by transcutaneous shock, Tail Flick Test (Experiment 3); assay type: in vivo, rats
Description: Experiment No. 3: Influence of several of the compounds of the invention on the analgesic activities of endogenous opiates released by transcutaneous shock in rats and measured by the Tail Flick Test
The method is that described by Lewis et al. J. Neurosc. 1, 358 […]. Male rats which have not fasted and have a weight of about 200 g are used.
The animals are stressed by the application of a 60 Hz-2.5 mA current to the front leg in pulses of a duration of 1 second every 5 seconds for 20 minutes.
This stress regime induces the release of endogenous opiates.

[6] = tested on: CCK-8 induced contraction of guinea pig gall bladder; assay: Anti-CCK-8 activity on gall bladders in situ; assay type: in vivo; conditions: for percentage inhibition of contracting effect of CCK-8: single experiments; for ED50: Cavia porcellus, iv, CCK-8 10 ng/kg i.v., read-out: ED50 (inhibition of 50% of contracting effect of CCK-8)
Description: In order to confirm the evidence of the studies in vitro several of the more interesting compounds were tested in vivo on guinea pig gall baldders in situ.
The method used is that described by Ljungberg (Svensk. Farm. Tidskr. 68, 351-354, 1964).
Guinea pigs having a weight of about 400 g, anaesthetised with urethane, were used; the substances under examination were administered intraveneously into the jugular vein.
The responses of the gall bladders to the substances under test were detected by means of a force transducer and recorded by means of a microdynamometer. The optimum contracting dose was chosen as 10 ng/kg of CCK-8. The antagonist compounds tested were administered in increasing doses so as to enable the calculation of an ED50 value, that is in the dose (in mg/kg i.v.) capable of inhibiting 50% of the contracting effect of 10 ng/kg i.v. of CCK-8.
The results obtained are given in Table 7 below, which gives the doses used and the effects obtained expressed as a percentage inhibition of the contracting effect of CCK-8 as well as the ED50 found.

[7] = DALA 10 + compound 0.003 μg/kg ICV, 10'
[8] = DALA 10 + compound 0.003 μg/kg ICV, 20'
[9] = DALA 10 + compound 0.003 μg/kg ICV, 30'
[10] = DALA 10 + compound 0.003 μg/kg ICV, 45'
[11] = DALA 10 + compound 0.003 μg/kg ICV, 60'
[12] = DALA 10 + compound 0.003 μg/kg ICV, 90'
[13] = DALA 10 + compound 0.003 μg/kg ICV
[14] = DALA 10 + compound 0.01 μg/kg ICV, 10'
[15] = DALA 10 + compound 0.01 μg/kg ICV, 20'
[16] = DALA 10 + compound 0.01 μg/kg ICV, 30'
[17] = DALA 10 + compound 0.01 μg/kg ICV, 45'
[18] = DALA 10 + compound 0.01 μg/kg ICV, 60'
[19] = DALA 10 + compound 0.01 μg/kg ICV, 90'
[20] = DALA 10 + compound 0.01 μg/kg ICV
[21] = compound 1 mg/kg iv + stress, 5'
[22] = compound 1 mg/kg iv + stress, 10'
[23] = compound 1 mg/kg iv + stress, 15'
[24] = compound 3 mg/kg iv + stress, 5'
[25] = compound 3 mg/kg iv + stress, 10'
[26] = compound 3 mg/kg iv + stress, 15'

Row | SMILES | percentage variation in latency time (Effect %) ([1]; 24 h) | percentage variation in latency time (Effect %) ([1]; 48 h) | percentage variation in latency time (Effect %) ([1]; 72 h) | percentage variation in latency time (Effect %) ([1]; 96 h) | percentage variation in latency time (Effect %) ([1]; 120 h) | percentage variation in latency time (Effect %) ([1]; 144 h) | percentage variation in latency time (Effect %) ([1]; 168 h) [%] | percentage variation in latency time (Effect %) ([1]; time 0) | ED50 [2] [mg/kg] | ED50 (concentration antagonising 50% of contracting effect of CCK-8) [3] [µg/mL] | analgesic activity, Tail Flick [4, 7] | analgesic activity, Tail Flick [4, 8] | analgesic activity, Tail Flick [4, 9] | average latency, Tail Flick [5, 21] [s] | average latency, Tail Flick [5, 22] [s] | average latency, Tail Flick [5, 23] [s] | average latency, Tail Flick [5, 24] [s] | average latency, Tail Flick [5, 25] [s] | average latency, Tail Flick [5, 26] [s] | ED50 [6] [mg/kg] | also measured
1 | CCCN(CCC)C(=O)C(CCC(=O)O)NC(=O)c1cccc(C#N)c1 (stereo not drawn) [Compound C-20] | 53.36% | 48.17% | 53.67% | 31.56% | 41.67% | 14.48% | 13.75 | 72.15% | 77.5 | > 200 | 5.7 | 44.6 | 32.3 | 7.5 ± 0.3 | 5.34 ± 0.46 | 3.88 ± 0.29 | 8.48 ± 0.62 | 6.42 ± 0.21 | 4.98 ± 0.36 |  | analgesic activity, Tail Flick [4, 10]: 30.1; analgesic activity, Tail Flick [4, 11]: 24.5; analgesic activity, Tail Flick [4, 12]: 72.; MEAN analgesic activity, Tail Flick [4, 13]: 24.1; analgesic activity, Tail Flick [4, 14]: 16.5; analgesic activity, Tail Flick [4, 15]: 62.5; analgesic activity, Tail Flick [4, 16]: 64.1; analgesic activity, Tail Flick [4, 17]: 45.4; analgesic activity, Tail Flick [4, 18]: 45.3; analgesic activity, Tail Flick [4, 19]: 16.3; MEAN analgesic activity, Tail Flick [4, 20]: 41.7
2 | CCCCN(CCCC)C(=O)CCC(NC(=O)c1ccc(Cl)c(Cl)c1)C(=O)O [Compound D-2] | 45.73% | 59.50% | 51.52% | 43.40% | 37.60% | 21.43% | 29.75 | 74.14% | 50.7 | > 200 | 34.9 | 54.0 | 45.5 | 9.2 ± 0.53 | 7.0 ± 0.86 | 5.28 ± 0.64 | 9.6 ± 0.46 | 7.24 ± 0.58 | 5.08 ± 0.52 |  | analgesic activity, Tail Flick [4, 10]: 27.5; analgesic activity, Tail Flick [4, 11]: 23.5; analgesic activity, Tail Flick [4, 12]: 14.9; MEAN analgesic activity, Tail Flick [4, 13]: 33.4; analgesic activity, Tail Flick [4, 14]: 38.2; analgesic activity, Tail Flick [4, 15]: 53.7; analgesic activity, Tail Flick [4, 16]: 52.6; analgesic activity, Tail Flick [4, 17]: 38.5; analgesic activity, Tail Flick [4, 18]: 33.7; analgesic activity, Tail Flick [4, 19]: 26.3; MEAN analgesic activity, Tail Flick [4, 20]: 40.5
3 | CCCCCN(CCCCC)C(=O)C(CCC(=O)O)NC(=O)c1ccc(Cl)c(Cl)c1 (stereo not drawn) [Compound C-7] |  |  |  |  |  |  |  |  | 16.8 | 0.06 |  |  |  |  |  |  |  |  |  | 0.02 | active concentration relative to that of CCK-8 ([3]; 50% antagonism of CCK-8): about 10 times; percentage inhibition of contracting effect of CCK-8 ([6]; 0.003 mg/kg i.v.): -10.6%; percentage inhibition of contracting effect of CCK-8 ([6]; 0.03 mg/kg i.v.): -62.1% and -57.0% and -59.2%; block of gall bladder contractions induced by CCK-8 ([6]; 0.1 mg/kg): can block gall bladder contractions induced by CCK-8
4 | CCCN(CCC)C(=O)C(CCC(=O)O)NC(=O)c1ccc(C(C)C)cc1 (stereo not drawn) [Compound C-36] |  |  |  |  |  |  |  |  | 208 | 13.4 |  |  |  | 6.9 ± 0.74 | 6.5 ± 0.42 | 4.66 ± 0.55 | 9.22 ± 0.67 | 8.1 ± 0.43 | 9.28 ± 0.64 | 5.1 | percentage inhibition of contracting effect of CCK-8 ([6]; 10 mg/kg i.v.): 64.8% and 71.6% and 63.3% and 78.7%; percentage inhibition of contracting effect of CCK-8 ([6]; 30 mg/kg i.v.): 100%
5 | CCCN(CCC)C(=O)C(CCC(=O)O)NC(=O)c1ccc(C)c(C)c1 (stereo not drawn) [Compound C-30] | 66.53% and 67.27% | 50.61% and 67.31% | 47.53% and 56.04% | 29.65% and 49.48% | 34.24% and 34.34% | 26.97% and 27.50% |  | 74.51% and 44.52% | 77.7 | 33.5 |  |  |  | 7.26 ± 0.52 | 6.10 ± 0.49 | 4.68 ± 0.5 | 9.46 ± 0.64 | 7.96 ± 0.61 | 6.82 ± 0.78 | 13.8 | analgesic activity, Tail Flick ([4]; DALA 10 + compound 0.01 mg/kg (ICV), 10', 0.01 mg/kg): 58 and 59.1; analgesic activity, Tail Flick ([4]; DALA 10 + compound 0.01 mg/kg (ICV), 20', 0.01 mg/kg): 60.8 and 67.8; analgesic activity, Tail Flick ([4]; DALA 10 + compound 0.01 mg/kg (ICV), 30', 0.01 mg/kg): 77.0 and 86.0; analgesic activity, Tail Flick ([4]; DALA 10 + compound 0.01 mg/kg (ICV), 45', 0.01 mg/kg): 66.4 and 83.3; analgesic activity, Tail Flick ([4]; DALA 10 + compound 0.01 mg/kg (ICV), 60', 0.01 mg/kg): 48.8 and 83.3; analgesic activity, Tail Flick ([4]; DALA 10 + compound 0.01 mg/kg (ICV), 90', 0.01 mg/kg): 45.0 and 55.1; MEAN analgesic activity, Tail Flick ([4]; DALA 10 + compound 0.01 mg/kg (ICV), 0.01 mg/kg): 59.33 and 73.26; percentage inhibition of contracting effect of CCK-8 ([6]; 30 mg/kg i.v.): 82.1% and 92.5% and 79.5%
